These results are taken from patent US11884906B1, “4D-perfused tumoroid-on-a-chip platform for personalized cancer treatment applications” (University of South Florida, priority 2019, dated 2024).

In one assay the test system is HT29 tumoroid cells. Kind of assay: Drug response of HT29 tumoroids on FiSS, CELLTITER-GLO viability, platform 10 (Chip) vs static system (Control). The class given is cell-based. The settings on record: 48 hours drug treatment, microfluidic platform 10 (Chip) compared with static system (Control), FIGS. 14A-14C. The procedure:
(§1) FIG. 6 depicts the results of experiments performed on platform 10 described in detail above. In a first step, microfluidic channel layer 14 is cleaned and a scaffold to be grown on platform 10 is washed. Either 3000 cells of HT29, 2000 cells of HCT116, of 3500 cells of LLC are seeded in 100 μL of a culture media 30. After 48 hours, an additional 100 μl of the culture media 30 is added to inlet well 20, and an additional 50 μL of the culture media is added to culture well 21, with no fresh media added to outlet well 22. Approximately 48 hours after the additional media is added, a drug response test is performed. All the culture media 30 is removed from culture well 21, and 300 μL of a drug dissolved media is added to culture well 21 at the control plate. […]
(§2) A test, such as a CELLTITER-GLO® test, is performed 48 hours later to quantify the viable cells in the culture. […] Cell viability was determined using a CELLTITER-GLO® assay (Promega) according to the manufacturer's protocol. Luminescence was measured in a white well-plate in a Bio-Tek Synergy H4 plate reader (BioTek). An average luminescence value for each group was plotted as a percentage of the control group. […]
(Cellular ATP, detected with luciferase, serves as a proxy for viable cell number.)

The next assay has as its system HCT116 tumoroid cells. Put plainly: Drug response of HCT116 tumoroids on FiSS, CELLTITER-GLO viability, platform 10 (Chip) vs static system (Control). It is filed as cell-based. The note with it: 48 hours drug treatment, microfluidic platform 10 (Chip) compared with static system (Control), FIGS. 15A-15C. The procedure:
as §1, §2

On to `O=c1[nH]cc(F)c(=O)[nH]1` [fluorouracil], for which the “drug dose required on platform 10 to have the same IC50 as the static systems” value was “higher drug dose” in the assay with HT29 tumoroid cells and “lower drug dose” in the assay with HCT116 tumoroid cells.
On to `O=C1[O][Pt]2([NH][C@@H]3CCCC[C@H]3[NH]2)[O]C1=O` [oxaliplatin], for which the “drug dose required on platform 10 to have the same IC50 as the static systems” value in the assay with HT29 tumoroid cells and in the assay with HCT116 tumoroid cells was “higher drug dose” in each case.
